Experimental data reported in patent publication US20240384268A1, “Oligonucleotides” (Hudson Institute of Medical Research, priority 2021, published 2024).
In the oligonucleotide strings, read from the 5' end, every base follows the letter of its sugar. An asterisk marks phosphorothioate; unmarked linkages are phosphodiester. Other units and linkages are bracketed, terminal groups are in braces. A string of capitals states the bases alone. d = 2'-deoxy (DNA); m = 2'-O-methyl

Target: cGAS (Homo sapiens, UniProt Q8N884)
Assay: ISD70-driven IP-10 (and IFN-β) production in THP-1 cells, ELISA
Type: cell-based
Set-up: endogenous in cells; host or cells: THP-1 (undifferentiated)
Conditions: MOE-modified ASO at 100 nM; averaged IP-10 levels relative to ISD70 condition

cGAS, sequence (Q8N884 whole entry): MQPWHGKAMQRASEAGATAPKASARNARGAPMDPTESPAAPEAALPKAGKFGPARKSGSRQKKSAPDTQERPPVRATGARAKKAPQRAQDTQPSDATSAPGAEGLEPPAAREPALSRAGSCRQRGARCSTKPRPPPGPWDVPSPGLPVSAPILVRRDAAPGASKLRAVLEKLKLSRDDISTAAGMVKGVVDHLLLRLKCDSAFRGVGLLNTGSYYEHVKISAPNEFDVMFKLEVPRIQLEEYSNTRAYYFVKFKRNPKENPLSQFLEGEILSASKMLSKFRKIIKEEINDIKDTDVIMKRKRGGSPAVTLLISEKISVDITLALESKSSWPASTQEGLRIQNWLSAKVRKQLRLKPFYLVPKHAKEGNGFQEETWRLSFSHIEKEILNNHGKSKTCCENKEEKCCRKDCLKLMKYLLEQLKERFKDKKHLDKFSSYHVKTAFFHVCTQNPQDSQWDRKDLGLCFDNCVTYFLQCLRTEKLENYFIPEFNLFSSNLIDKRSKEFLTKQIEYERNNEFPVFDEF

Going from “GCTGACAAAGATTCACTGGT (antisense; 2'-MOE modified, pattern not given here) [HPRT-1353 MOE]” to “AGTCGTAGTTGCTTCCTAAC (antisense; 2'-MOE modified, pattern not given here) [MB21D1-1181 MOE]”, the “cGAS 100 nM” value falls from 0.335 to 0.261.

Compared with “TGGGCTGGAATCCGAGTTAT (antisense; 2'-MOE modified, pattern not given here) [EGFR-4705 MOE]”, “GGTTTTGGCTGGGATCAAGT (antisense; 2'-MOE modified, pattern not given here) [CAMSAP1-4697 MOE]” is lower in “cGAS 100 nM” value: 0.433 for the first, 0.375 for the second.

Going from “CGGAGGTCTTGGCTTCGTGG (antisense; 2'-MOE modified, pattern not given here) [MB21D1-525 MOE]” to “TGGGTTACGGCTCAGTATGG (antisense; 2'-MOE modified, pattern not given here) [CAMSAP1-4295 MOE]”, the “cGAS 100 nM” value rises from 0.111 to 0.432.

First: GCCCATCCATGAGGTCCTGG (antisense; 2'-MOE modified, pattern not given here) [CTNN2B-2545 MOE]
Second: GTCCAAGATCAGCAGTCTCA (antisense; 2'-MOE modified, pattern not given here) [CTNN2B-2341 MOE]
The “cGAS 100 nM” value of the first is lower: 0.592 for the first, 0.705 for the second.

Same assay, conditions: THP-1; 100 nM ASO overnight, then ISD70 2.5 μg/ml 7-8 h; percentage of ISD70 only

Compared with “mC*mC*mA*mU*mG*T*C*C*C*A*G*G*C*C*T*mC*mC*mA*mG*mU (CCAUGTCCCAGGCCTCCAGU; sugars from the 5' end m5 d10 m5, all phosphorothioate, methylation of C not given here) [[CDKN2B-AS1]2227]”, “mU*mU*mG*mG*mC*C*T*G*T*G*G*A*T*G*C*mU*mU*mU*mG*mU (mU*mU*mG*mG*mC*dC*dT*dG*dT*dG*dG*dA*dT*dG*dC*mU*mU*mU*mG*mU) [[LINC-PINT]2673.1]” is higher in “cGAS-100 nM: averaged IP-10 levels relative to ISD70” value: 36.34% for the first, 68.35% for the second.

First: mA*mG*mC*mC*mG*A*A*C*A*G*A*A*G*G*A*mG*mC*mG*mU*mC (AGCCGAACAGAAGGAGCGUC; sugars from the 5' end m5 d10 m5, all phosphorothioate, methylation of C not given here) [[LINC-PINT]587 KL]
Second: mU*mU*mG*mU*mG*A*A*A*A*G*A*T*T*A*T*mC*mU*mU*mC*mU (mU*mU*mG*mU*mG*dA*dA*dA*dA*dG*dA*dT*dT*dA*dT*mC*mU*mU*mC*mU) [[CDKN2B-AS1]2138]
The “cGAS-100 nM: averaged IP-10 levels relative to ISD70” value of the first is lower: 39.92% for the first, 69.36% for the second.

Compared with “mA*mA*mA*mA*mU*A*A*G*G*G*G*A*A*T*A*mG*mG*mG*mG*mA (mA*mA*mA*mA*mU*dA*dA*dG*dG*dG*dG*dA*dA*dT*dA*mG*mG*mG*mG*mA; antisense) [[CDKN2B-AS1]79]”, “mC*mA*mG*mG*mC*C*T*C*C*A*G*T*G*T*C*mU*mU*mC*mU*mC (mC*mA*mG*mG*mC*dC*dT*dC*dC*dA*dG*dT*dG*dT*dC*mU*mU*mC*mU*mC; antisense) [[CDKN2B-AS1]2219]” is higher in “cGAS-100 nM: averaged IP-10 levels relative to ISD70” value: 94.10% for the first, 99.38% for the second.

Compared with “mG*mU*mC*mC*mG*T*A*C*C*T*C*C*A*C*C*mC″mA*mC*mC*mG [[LINC-PINT]727.1]”, “mA*mG*mA*mA*mA*G*A*A*G*C*A*A*A*G*A*mU*mU*mC*mA*mA (AGAAAGAAGCAAAGAUUCAA; sugars from the 5' end m5 d10 m5, all phosphorothioate, methylation of C not given here) [[CDKN2B-AS1]1519]” is lower in “cGAS-100 nM: averaged IP-10 levels relative to ISD70” value: 86.09% for the first, 49.09% for the second.

Compared with “mC*mA*mC*mU*mG*T*A*T*T*T*T*A*T*T*A*mC*mA*mG*mA*mA (mC*mA*mC*mU*mG*dT*dA*dT*dT*dT*dT*dA*dT*dT*dA*mC*mA*mG*mA*mA; antisense) [[LINC-PINT]2990]”, “mU*mG*mU*mU*mU*C*C*C*C*G*G*A*G*A*G*mC*mA*mA*mU*mG (UGUUUCCCCGGAGAGCAAUG; antisense; sugars from the 5' end m5 d10 m5, all phosphorothioate, methylation of C not given here) [[LINC-PINT]501 KL]” is lower in “cGAS-100 nM: averaged IP-10 levels relative to ISD70” value: 69.47% for the first, 57.81% for the second.

Compared with “mA*mG*mA*mU*mU*A*T*C*T*T*C*T*T*T*T*mA*mA*mU*mU*mU (AGAUUATCTTCTTTTAAUUU; sugars from the 5' end m5 d10 m5, all phosphorothioate, methylation of C not given here) [[CDKN2B-AS1]2130]”, “mU*mC*mU*mC*mU*C*T*G*G*T*C*C*C*A*T*mC*mC*mC*mU*mU (mU*mC*mU*mC*mU*dC*dT*dG*dG*dT*dC*dC*dC*dA*dT*mC*mC*mC*mU*mU; antisense) [[LINC-PINT]110]” is higher in “cGAS-100 nM: averaged IP-10 levels relative to ISD70” value: 55.80% for the first, 92.39% for the second.

Going from “mU*mC*mC*mC*mA*T*C*C*C*T*T*C*T*G*C*mU*mG*mA*mC*mA (UCCCATCCCTTCTGCUGACA; sugars from the 5' end m5 d10 m5, all phosphorothioate, methylation of C not given here) [[LINC-PINT]101]” to “mU*mA*mA*mA*mA*T*A*A*G*G*G*G*A*A*T*mA*mG*mG*mG*mG (mU*mA*mA*mA*mA*dT*dA*dA*dG*dG*dG*dG*dA*dA*dT*mA*mG*mG*mG*mG) [[CDKN2B-AS1]80]”, the “cGAS-100 nM: averaged IP-10 levels relative to ISD70” value rises from 86.62% to 110.58%.

Going from “mA*mA*mU*mA*mU*C*T*G*C*T*G*C*C*C*A*mC*mC*mU*mU*mC (mA*mA*mU*mA*mU*dC*dT*dG*dC*dT*dG*dC*dC*dC*dA*mC*mC*mU*mU*mC; antisense) [[CDKN2B-AS1]832]” to “mU*mG*mA*mC*mA*A*A*A*C*A*A*T*A*A*T*mA*mA*mC*mA*mG (mU*mG*mA*mC*mA*dA*dA*dA*dC*dA*dA*dT*dA*dA*dT*mA*mA*mC*mA*mG) [[LINC-PINT]384]”, the “cGAS-100 nM: averaged IP-10 levels relative to ISD70” value rises from 83.17% to 88.79%.

Going from “mG*mC*mA*mA*mG*G*C*A*G*A*G*A*A*A*C*mU*mC*mC*mA*mG (GCAAGGCAGAGAAACUCCAG; sugars from the 5' end m5 d10 m5, all phosphorothioate, methylation of C not given here) [[LINC-PINT]1315 KL]” to “mA*mA*mU*mU*mU*A*A*A*G*C*A*T*G*A*A*mU*mA*mU*mU*mA (mA*mA*mU*mU*mU*dA*dA*dA*dG*dC*dA*dT*dG*dA*dA*mU*mA*mU*mU*mA) [[CDKN2B-AS1]645]”, the “cGAS-100 nM: averaged IP-10 levels relative to ISD70” value rises from 30.64% to 67.63%.

Compared with “mU*mC*mU*mC*mC*A*T*G*T*C*C*C*A*G*G*mC*mC*mU*mC*mC (mU*mC*mU*mC*mC*dA*dT*dG*dT*dC*dC*dC*dA*dG*dG*mC*mC*mU*mC*mC; antisense) [[CDKN2B-AS1]2230]”, “mU*mC*mC*mC*mA*A*C*T*C*T*T*C*T*A*A*mC*mU*mC*mG*mU (mU*mC*mC*mC*mA*dA*dC*dT*dC*dT*dT*dC*dT*dA*dA*mC*mU*mC*mG*mU; antisense) [[LINC-PINT]1284 KL]” is higher in “cGAS-100 nM: averaged IP-10 levels relative to ISD70” value: 94.78% for the first, 99.64% for the second.

Compared with “mG*mU*mC*mC*mC*A*G*G*C*C*T*C*C*A*G*mU*mG*mU*mC*mU (mG*mU*mC*mC*mC*dA*dG*dG*dC*dC*dT*dC*dC*dA*dG*mU*mG*mU*mC*mU; antisense) [[CDKN2B-AS1]2223]”, “mU*mC*mU*mG*mG*T*C*C*C*A*T*C*C*C*T*mU*mC*mU*mG*mC (UCUGGTCCCATCCCTUCUGC; antisense; sugars from the 5' end m5 d10 m5, all phosphorothioate, methylation of C not given here) [[LINC-PINT]106]” is lower in “cGAS-100 nM: averaged IP-10 levels relative to ISD70” value: 74.22% for the first, 48.75% for the second.

First: mC*mC*mA*mU*mC*C*C*T*T*C*T*G*C*T*G*mC*mC*mA*mA*mG (mC*mC*mA*mU*mC*dC*dC*dT*dT*dC*dT*dG*dC*dT*dG*mC*mC*mA*mA*mG; antisense) [ILING-PINT199]
Second: mU*mG*mU*mG*mA*A*A*A*G*A*T*T*A*T*C*mU*mU*mC*mU*mU (UGUGAAAAGATTATCUUCUU; sugars from the 5' end m5 d10 m5, all phosphorothioate, methylation of C not given here) [[CDKN2B-AS1]2137]
The “cGAS-100 nM: averaged IP-10 levels relative to ISD70” value of the first is higher: 85.43% for the first, 40.72% for the second.

First: mG*mU*mC*mC*mC*A*T*C*C*C*T*T*C*T*G*mC*mU*mG*mC*mC (GUCCCATCCCTTCTGCUGCC; antisense; sugars from the 5' end m5 d10 m5, all phosphorothioate, methylation of C not given here) [[LINC-PINT]102]
Second: mA*mG*mG*mA*mU*T*A*A*A*A*C*A*G*A*T*mU*mA*mA*mU*mA (mA*mG*mG*mA*mU*dT*dA*dA*dA*dA*dC*dA*dG*dA*dT*mU*mA*mA*mU*mA) [[CDKN2B-AS1] 1775]
The “cGAS-100 nM: averaged IP-10 levels relative to ISD70” value of the first is higher: 113.87% for the first, 88.54% for the second.

First: mG*mU*mC*mA*mA*A*C*C*T*A*G*A*A*A*G*mA*mA*mG*mC*mA (mG*mU*mC*mA*mA*dA*dC*dC*dT*dA*dG*dA*dA*dA*dG*mA*mA*mG*mC*mA; antisense) [[CDKN2B-AS1]1528]
Second: mC*mC*mU*mU*mC*T*G*C*T*G*C*C*A*A*G*mC*mC*mC*mC*mA (mC*mC*mU*mU*mC*dT*dG*dC*dT*dG*dC*dC*dA*dA*dG*mC*mC*mC*mC*mA; antisense) [[LINC-PINT]94]
The “cGAS-100 nM: averaged IP-10 levels relative to ISD70” value of the first is lower: 68.94% for the first, 104.33% for the second.

Compared with “mG*mG*mU*mG*mG*C*C*A*C*A*G*G*C*A*A*mC*mG*mU*mC*mA (GGUGGCCACAGGCAACGUCA; antisense; sugars from the 5' end m5 d10 m5, all phosphorothioate, methylation of C not given here) [[CDKN2B-AS1]2196]”, “mC*mA*mA*mG*mC*C*C*C*A*G*C*G*T*T*C*mC*mU*mC*mC*mG (mC*mA*mA*mG*mC*dC*dC*dC*dA*dG*dC*dG*dT*dT*dC*mC*mU*mC*mC*mG; antisense) [[LINC-PINT]83.1]” is higher in “cGAS-100 nM: averaged IP-10 levels relative to ISD70” value: 48.58% for the first, 77.10% for the second.

For “mU*mG*mA*mU*mG*A*T*G*C*T*T*G*C*A*G*mG*mA*mG*mG*mC (mU*mG*mA*mU*mG*dA*dT*dG*dC*dT*dT*dG*dC*dA*dG*mG*mA*mG*mG*mC) [[LINC-PINT|283.1]”, the “cGAS-100 nM: averaged IP-10 levels relative to ISD70” value was 85.85%.
